Like-named read-outs stand apart in the source and are kept apart here.
Tests used:
[1] = In vivo metabolism (pharmacokinetic) experiment in mice; set-up: species or system male ICR mice; settings: mouse
Outline: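 Fasted (12 h) male ICR mice received compound in 5% DMSO/5% Solutol HS15/90% saline at 2.5 mg/kg iv or 10 mg/kg po. Plasma and brain sampled 0.083–8 h (n=3 per time point) and analysed by LC-MS/MS. Parameters derived by non-compartmental analysis.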

Sigma2 receptor = Sigma2 receptor (Homo sapiens, UniProt Q5BJF2); assay: Sigma receptor affinity assay ([3H]-DTG binding), Sigma2R
Sigma2 receptor, sequence (Q5BJF2 whole entry, species assumed): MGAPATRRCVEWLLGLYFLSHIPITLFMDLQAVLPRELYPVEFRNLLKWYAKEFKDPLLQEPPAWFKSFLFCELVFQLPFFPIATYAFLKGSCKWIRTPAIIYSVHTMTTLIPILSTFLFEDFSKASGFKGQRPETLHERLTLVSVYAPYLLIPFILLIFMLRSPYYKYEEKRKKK
Method: Cell membrane: the membrane protein adopted in the experiment was extracted from an HEK293 cell strain stably expressing Sigmal receptor and an HEK293 cell strain stably expressing Sigma2 receptor, which were constructed by WuXi AppTec.
• 1) Detection buffer: 50 mM Tris-HCl, pH=7.4, stored at 4° C. • 2) Sigma 1R assay plate washing buffer: 50 mM Tris-HCl, pH=7.4, stored at 4° C.; sigma2R assay plate washing buffer: 50 mM Tris-HCl, 100 mM NaCl, pH=7.4, stored at 4° C. • 3) The compounds were diluted to each working concentration: 4-fold serial gradient dilutions for 8 concentrations.
The affinity inhibition constant Ki was calculated using the Cheng Prusoff equation: […]

male C57 mice = assay: Forced swim test; format: in vivo; settings: intraperitoneal injection, test 0.5 h after dosing, motionless time in last 4 min
Method: Drug: the compound of the present disclosure was first uniformly mixed with 5% DMSO and 5% Solutol® HS 15. hysiological saline was then added to make up 90% of the final volume. The mixture was prepared at an appropriate concentration immediately before use.
Animal: male C57 mice, about 22 g. The animals were randomly divided into a blank control group and test drug groups, 8 animals per group, and mice in each group were administered either the vehicle or the test compound via intraperitoneal injection.
Experimental steps: the mice were subjected to forced swim test 0.5 h after dosing. The water level in the forced swim device was 45 cm, and the water temperature was 25° C. The mice were placed in an experimental room to adapt to the environment for 1 h before the experiment began. When the experiment began, the mice were placed in the device for 6 min, and the whole process was recorded by a camera. Only the motionless time of the mice in the last 4 min was counted when data were analyzed.

human SERT = human SERT (Homo sapiens, UniProt P31645); assay: Inhibitory activity assay against 5-HT transporter (neurotransmitter transporter uptake assay kit); format: cell-based; settings: HEK-293 cells overexpressing human SERT; read-out: 5-HTT (IC50)
human SERT, sequence (P31645 whole entry): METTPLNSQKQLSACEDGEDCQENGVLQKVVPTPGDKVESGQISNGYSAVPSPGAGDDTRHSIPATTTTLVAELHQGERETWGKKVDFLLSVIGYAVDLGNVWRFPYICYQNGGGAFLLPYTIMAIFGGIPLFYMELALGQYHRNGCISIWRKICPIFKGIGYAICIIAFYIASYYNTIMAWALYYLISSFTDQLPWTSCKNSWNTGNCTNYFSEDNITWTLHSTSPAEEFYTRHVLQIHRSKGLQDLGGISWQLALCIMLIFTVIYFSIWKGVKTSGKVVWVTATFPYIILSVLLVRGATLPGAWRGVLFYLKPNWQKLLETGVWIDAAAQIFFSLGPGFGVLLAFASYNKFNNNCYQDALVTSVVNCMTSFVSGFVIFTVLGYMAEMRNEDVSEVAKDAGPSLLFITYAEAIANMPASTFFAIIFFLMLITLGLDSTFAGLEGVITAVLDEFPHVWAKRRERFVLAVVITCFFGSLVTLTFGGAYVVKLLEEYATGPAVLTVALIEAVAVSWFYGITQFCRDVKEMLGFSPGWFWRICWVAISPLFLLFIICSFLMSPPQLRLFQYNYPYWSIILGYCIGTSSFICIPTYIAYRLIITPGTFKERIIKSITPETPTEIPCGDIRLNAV
Method: In HEK-293 cells overexpressing human SERT, the transporter inhibitory effect of the test compound on human SERT was assayed using a Neurotransmitter transporter uptake assay kit (Molecular devices).

human DAT = human DAT (Homo sapiens, UniProt Q01959); assay: DAT transporter inhibitory activity test (neurotransmitter transporter uptake assay kit); format: cell-based
human DAT, sequence (Q01959 whole entry): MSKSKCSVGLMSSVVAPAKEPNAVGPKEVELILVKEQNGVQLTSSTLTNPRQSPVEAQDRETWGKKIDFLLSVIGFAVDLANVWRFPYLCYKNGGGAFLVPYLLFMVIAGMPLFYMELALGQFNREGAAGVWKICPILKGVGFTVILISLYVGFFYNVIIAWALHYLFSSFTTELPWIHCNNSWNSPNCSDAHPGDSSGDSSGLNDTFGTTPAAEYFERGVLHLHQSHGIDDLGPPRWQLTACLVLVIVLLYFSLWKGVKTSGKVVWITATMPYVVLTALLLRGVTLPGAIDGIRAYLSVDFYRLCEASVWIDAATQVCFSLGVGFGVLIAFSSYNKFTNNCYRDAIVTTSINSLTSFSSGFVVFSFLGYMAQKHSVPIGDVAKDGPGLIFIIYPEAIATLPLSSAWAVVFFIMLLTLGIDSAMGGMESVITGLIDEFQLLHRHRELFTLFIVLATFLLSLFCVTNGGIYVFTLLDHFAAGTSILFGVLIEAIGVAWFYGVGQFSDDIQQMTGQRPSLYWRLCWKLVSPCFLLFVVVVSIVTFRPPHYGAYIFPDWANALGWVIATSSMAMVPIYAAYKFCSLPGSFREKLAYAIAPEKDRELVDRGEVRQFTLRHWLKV

[2] = Human liver microsome assay (metabolic stability); format: in vitro ADME; settings: pH 7.4
Method: Control and reagent: NADPH, magnesium chloride, testosterone, phosphate buffer, etc. were supplied by Dalian Meilun Biotech Co., Ltd., etc.
Liver microsome: human liver microsomes were supplied by Corning.
Experimental step: the liver microsome incubations were performed in 96-well plates, each incubation system having a volume of 200 μL, in a medium of 0.1 M phosphate buffer (pH 7.4), including liver microsomes at a final concentration of 0.2 mg/mL, 1 μM of the test drug, 3.0 mM MgCl2, 0.01% DMSO, 0.5% acetonitrile, and 2.0 mM NADPH. The incubation system described above without NADPH was pre-incubated at 37° C. for 5 min using a rotary water bath constant temperature oscillator. NADPH was added to initiate the reaction. At 0, 5, 15, 30, and 60 min, 20 μL of the sample was taken out from the incubation system after mixing well and added to 200 μL of acetonitrile containing an internal standard to terminate the reaction. Under the same conditions, 1 μM testosterone was used as a positive control to assess the reliability of the reaction system. For the negative control, phosphate buffer was used instead of NADPH, and all other incubation conditions remained the same. At 60 min, 20 μL of the sample was taken out after mixing well and added to 200 μL of termination solution containing an internal standard to terminate the reaction.
Sample analysis: After treatments such as precipitated protein extraction with an organic solvent, the incubated sample was analyzed using liquid chromatography-tandem mass spectrometry (LC-MS/MS). The concentrations of the test drug or the positive control drug in the sample were semi-quantified. The concentration in the sample was expressed using the ratio of the analyte peak area to the internal standard peak area.
Data processing and analysis: A standard curve of the In residual rate of the drug in the incubation system with respect to the incubation time was plotted by using Excel software, linear regression was performed to obtain a slope k, and the half-life T1/2 (min) and the intrinsic clearance CLint (mL/min/kg) were calculated according to the following formula: […]

human NET = human NET (Homo sapiens, UniProt P23975); assay: NET transporter inhibitory activity test (neurotransmitter transporter uptake assay kit); format: cell-based
human NET, sequence (P23975 whole entry): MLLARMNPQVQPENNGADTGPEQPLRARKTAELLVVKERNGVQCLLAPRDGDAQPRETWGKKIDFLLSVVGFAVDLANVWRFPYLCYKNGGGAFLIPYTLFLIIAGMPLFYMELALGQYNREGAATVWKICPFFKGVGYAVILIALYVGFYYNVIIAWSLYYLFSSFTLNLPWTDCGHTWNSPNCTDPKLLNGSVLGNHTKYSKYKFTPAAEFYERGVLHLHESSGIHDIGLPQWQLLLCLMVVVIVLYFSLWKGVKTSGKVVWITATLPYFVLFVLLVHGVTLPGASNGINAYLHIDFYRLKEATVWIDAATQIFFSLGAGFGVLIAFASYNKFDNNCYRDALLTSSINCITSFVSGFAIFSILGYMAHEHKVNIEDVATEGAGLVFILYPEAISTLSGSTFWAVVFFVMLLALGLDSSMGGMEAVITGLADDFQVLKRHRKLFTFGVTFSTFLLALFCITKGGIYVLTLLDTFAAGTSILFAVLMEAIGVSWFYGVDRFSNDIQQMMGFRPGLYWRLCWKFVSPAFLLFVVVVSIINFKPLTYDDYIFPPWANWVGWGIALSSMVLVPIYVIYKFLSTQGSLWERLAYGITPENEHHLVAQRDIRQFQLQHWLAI
Method: Transporter inhibition of human DAT and NET expressed in HEK-293 cells was assessed using a neurotransmitter transporter uptake assay kit. The assay was performed as described in the kit instructions, using centanafadine as a positive control. The specific procedures were as follows:
First day cell plating: HEK 293T cells were digested with trypsin, centrifuged, resuspended with a medium, counted, and seeded into a 6 cm culture dish at a density of 3×10^6 cells/well.
Second day cell transfection: HEK 293T cells were subjected to medium exchange, and then A, B tubes were prepared for NET-pcDNA5/FRT plasmid to be transfected. 200 μL of Opti-MEM was added to tube A, and 10 μL of Lipofectamine™ 3000 was added. The mixture was mixed well. 200 μL of Opti-MEM was added to tube B, and 5 μg of NET-pcDNA5/FRT plasmid was added. The mixture was mixed well, and then 10 μL of P3000™ was added to tube B. The mixture was mixed well (plasmid to transfection reagent ratio 1 μg:2 μL). The diluted solution of tube A was added to the diluted solution of tube B. The mixture was mixed well, and incubated at room temperature for 15 min. Finally, the mixture was gently added to the cells that had been subjected to medium exchange, gently shaken to mix, and then incubated overnight in an incubator at 37° C. with a carbon dioxide concentration of 5%. The cells were used for compound functional activity assays 18-20 h after transfection.
• a) After overnight transfection of NET cells, the cells were digested with trypsin, resuspended with DMEM+10% Dialyzed FBS medium, seeded into a 384-well plate at 20000 cells/well, and incubated overnight. Stably transfected DAT cells were digested with trypsin, resuspended with DMEM+10% Dialyzed FBS medium, seeded into a 384-well plate at 2500 cells/well, and incubated overnight. • b) 1× Assay buffer was prepared according to the kit instruction for later use; the positive compound and the test compound were serially diluted with DMSO, and then diluted to 2× with 1× assay buffer. • c) The medium was removed from the 384-well plate by centrifugation. • d) 16 μL of the compound prepared in step b) was added to corresponding experimental wells, wherein an initial concentration of 2× positive control compound was added to the positive control well, and 0.2% DMSO buffer was added to the negative control well. After centrifuging, the plate was incubated at 37° C. for 30 min. • e) A detection reagent was prepared using 1×HBSS, and 16 μL of the detection reagent was added to each well. After centrifuging, the plate was incubated at 37° C. for 60 min. • f) After incubation, the reading at 510 nm under the excitation of the detection wavelength of 425 nm was measured using a microplate reader. Curve fitting and IC50 calculation were performed using GraphPad Prism software nonlinear regression method.

[3] = molecular target: T1, NMDA receptor (N-methyl-D-aspartate receptor, NR1/2A) (Homo sapiens, UniProt Q05586+Q12879); assay: NMDA receptor antagonistic activity assay (whole cell manual patch clamp, channel currents); format: cell-based; settings: HEK293 cells transiently expressing hNR1/2A; current evoked by 100 μM glutamic acid + 100 μM glycine at -70 mV; read-out: NMDAR antagonistic activity (IC50)
T1 construct: T2A self-cleaving peptide (linker between NR1 and 2A) (C)
T1 sequence (Q12879 23-1464, other chains not shown): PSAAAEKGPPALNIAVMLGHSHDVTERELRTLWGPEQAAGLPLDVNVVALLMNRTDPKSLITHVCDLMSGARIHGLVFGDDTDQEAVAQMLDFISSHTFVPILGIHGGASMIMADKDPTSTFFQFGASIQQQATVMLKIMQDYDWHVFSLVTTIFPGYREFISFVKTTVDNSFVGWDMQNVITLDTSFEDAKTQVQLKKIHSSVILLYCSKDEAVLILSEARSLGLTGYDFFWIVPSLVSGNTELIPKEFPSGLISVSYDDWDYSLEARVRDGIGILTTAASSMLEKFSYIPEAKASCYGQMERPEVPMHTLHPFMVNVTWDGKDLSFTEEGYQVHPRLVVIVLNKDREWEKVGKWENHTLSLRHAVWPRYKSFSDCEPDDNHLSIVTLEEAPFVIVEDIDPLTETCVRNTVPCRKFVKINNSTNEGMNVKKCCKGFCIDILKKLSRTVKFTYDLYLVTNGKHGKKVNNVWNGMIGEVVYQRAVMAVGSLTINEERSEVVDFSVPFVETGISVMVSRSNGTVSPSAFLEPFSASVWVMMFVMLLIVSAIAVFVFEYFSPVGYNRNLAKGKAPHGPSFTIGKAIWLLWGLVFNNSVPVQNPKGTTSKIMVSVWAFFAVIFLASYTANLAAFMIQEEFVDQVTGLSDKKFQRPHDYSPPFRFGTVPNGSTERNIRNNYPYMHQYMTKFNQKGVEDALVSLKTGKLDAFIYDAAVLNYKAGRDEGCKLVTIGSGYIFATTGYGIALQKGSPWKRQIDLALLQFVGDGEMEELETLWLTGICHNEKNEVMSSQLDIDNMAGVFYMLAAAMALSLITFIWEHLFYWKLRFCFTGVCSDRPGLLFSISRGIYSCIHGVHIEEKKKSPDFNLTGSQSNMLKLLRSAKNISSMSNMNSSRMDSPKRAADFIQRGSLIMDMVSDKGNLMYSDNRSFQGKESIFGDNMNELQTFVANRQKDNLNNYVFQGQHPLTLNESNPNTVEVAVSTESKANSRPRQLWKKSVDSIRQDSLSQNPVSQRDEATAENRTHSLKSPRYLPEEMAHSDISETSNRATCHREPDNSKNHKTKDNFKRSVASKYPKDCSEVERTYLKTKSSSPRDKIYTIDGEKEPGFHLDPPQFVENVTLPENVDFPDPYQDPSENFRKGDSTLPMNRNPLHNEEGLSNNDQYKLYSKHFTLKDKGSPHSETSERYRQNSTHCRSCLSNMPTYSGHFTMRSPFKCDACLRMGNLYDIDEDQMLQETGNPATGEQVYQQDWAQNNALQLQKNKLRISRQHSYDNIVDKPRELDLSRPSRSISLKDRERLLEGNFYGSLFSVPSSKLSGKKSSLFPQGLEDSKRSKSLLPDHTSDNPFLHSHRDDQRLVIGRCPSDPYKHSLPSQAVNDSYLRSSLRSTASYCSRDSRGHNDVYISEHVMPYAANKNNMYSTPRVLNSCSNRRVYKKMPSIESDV
Method: The effect of the compounds on NMDA receptor (N-methyl-D-aspartate receptor, NR1/2A) channel currents was tested using the electrophysiological whole cell manual patch clamp method.
The HEK293 cell line was cultured in DMEM medium containing 10% fetal bovine serum at 37° C. with 5% carbon dioxide.
Preparation of compound: on the day of testing, the stock solution of the compound of the present disclosure was diluted with DMSO to an intermediate concentration, which was then further diluted with an extracellular solution (containing 100 μM glutamic acid+100 µM glycine) to obtain the final concentration to be tested. […] Electrophysiological recording
Currents evoked by 100 μM glutamic acid (containing 100 μM glycine) were recorded at room temperature from HEK293 cells transiently expressing NMDA receptor channels using the whole-cell patch clamp technique. Glass microelectrodes were formed by pulling a glass electrode blank (BF150-86-10, Sutter) using a puller. The tip resistance after perfusion of electrode internal solution was about 2-5 MΩ. The glass microelectrodes could be connected to a patch clamp amplifier after being inserted into amplifier probes. […] After whole-cell recording was achieved, the cell was clamped at −70 mV. A gravity-driven rapid administration system was used to apply 100 μM glutamic acid (containing 100 μM glycine) to induce the channel current. After the current stabilized, the 100 μM glutamic acid (containing 100 μM glycine) was administered, and changes in current amplitude were observed. The compounds were administered sequentially from low to high concentration, followed by a final administration of 100 μM glutamic acid (containing 100 μM glycine). Each test concentration of the compound was applied for at least 20 s, and at least 2 cells (n≥2) were tested for each concentration. • d. Data processing
Data were analyzed using pClamp, GraphPad Prism 8, and Excel software.
The IC50 of the compound was calculated using the GraphPad Prism 8 software by equation fitting as follows:
[formula] • where X is the Log value of the test concentration of the test sample, Y is the inhibition percentage at the corresponding concentration, and Bottom and Top are the minimum and maximum inhibition percentages, respectively.

[4] = HEK293 membranes stably expressing Sigma2 receptor, [3H]-DTG 5 nM, read-out: Sigma2R (Ki)
[5] = human liver microsomes 0.2 mg/mL, 1 μM test drug, NADPH, 37° C., read-out: Half-life (t1/2, min)
[6] = human liver microsomes 0.2 mg/mL, 1 μM test drug, NADPH, 37° C., read-out: Intrinsic clearance (Clint, mL/min/kg)
[7] = male ICR mice, oral 10 mg/kg vs iv 2.5 mg/kg, read-out: F (%)
[8] = male ICR mice, oral 10 mg/kg, plasma, read-out: AUC0-inf(po)
[9] = male ICR mice, oral 10 mg/kg, plasma, read-out: Cmax (po)
[10] = male ICR mice, oral 10 mg/kg, plasma, read-out: T1/2 (po) (converted)
[11] = DAT stably transfected HEK cells, read-out: DAT (IC50)

CNC1(c2ccccc2)CCc2nc(N)sc2C1 (racemic) [rac-A3, N^6-methyl-6-phenyl-4,5,6,7-tetrahydrobenzothiazole-2,6-diamine]
AUC(0-inf) ([1]; male, ICR, po, 10 mg/kg, AUC0-inf(po) (ng*h/mL)): 1160 ng·h/mL | Cmax ([1]; male, ICR, po, 10 mg/kg, Cmax (po) (ng/mL)): 330 ng/mL | bioavailability ([1]; male, ICR, po, 10 mg/kg, F (%)): 56% | half-life ([1]; male, ICR, po, 10 mg/kg, T1/2 (po) (h)): 2.85 h | Ki (Sigma2 receptor; [4]): 124 nM | Effective dose (male C57 mice): 3 mg/kg | IC50 (human SERT): 1200 nM | IC50 (human DAT): 1000 nM

CNC1(c2ccccc2)CCc2ncsc2C1 (racemic) [rac-A13, N-methyl-6-phenyl-4,5,6,7-tetrahydrobenzothiazol-6-amine]
half-life at 1 μM [2, 5]: 266 min | CLint scaled at 1 μM [2, 6]: 15.2 mL/min/kg | bioavailability [1, 7]: 78% | AUC(0-inf) [1, 8]: 845 ng·h/mL | Cmax [1, 9]: 518 ng/mL | half-life [1, 10]: 1.98 h | Ki (Sigma2 receptor): 308 nM | Effective dose (male C57 mice): 2.5 mg/kg

NC1(c2ccccc2)CCc2ccsc2C1 (racemic) [rac-A19, 6-phenyl-4,5,6,7-tetrahydrobenzothiophen-6-amine]
half-life at 1 μM [2, 5]: 80 min | CLint scaled at 1 μM [2, 6]: 50.6 mL/min/kg | bioavailability [1, 7]: 48% | AUC(0-inf) [1, 8]: 797 ng·h/mL | Cmax [1, 9]: 284 ng/mL | half-life [1, 10]: 2.84 h | Ki (Sigma2 receptor): 523 nM

Nc1nc2c(s1)CC(c1ccccc1)(N1CCCCC1)CC2 (racemic) [rac-A48, 6-phenyl-6-(piperidin-1-yl)-4,5,6,7-tetrahydrobenzothiazol-2-amine]
CLint scaled at 1 μM ([2]; human, microsomes): 7.4 mL/min/kg | half-life at 1 μM ([2]; human, microsomes): 547 min | Effective dose (male C57 mice): 1 mg/kg | IC50 (human DAT): 760 nM | IC50 (human NET; NET transiently transfected HEK 293T cells, read-out: NET (IC50)): 4600 nM

Nc1nc2c(s1)CC(c1cccc(Cl)c1)(N1CCCCC1)CC2 (racemic) [rac-A49, 6-(3-chlorophenyl)-6-(piperidin-1-yl)-4,5,6,7-tetrahydrobenzothiazol-2-amine]
half-life at 1 μM [2, 5]: 117 min | CLint scaled at 1 μM [2, 6]: 34.7 mL/min/kg | IC50 (human SERT): 1200 nM | IC50 (human DAT; [11]): 330 nM | IC50 (human NET): 2500 nM

Nc1nc2c(s1)CC(c1ccccc1)(N1CCCC1)CC2 (racemic) [rac-A50, 6-Phenyl-6-(Pyrrolidin-1-Yl)-4,5,6,7-Tetrahydrobenzothiazol-2-amine]
bioavailability [1, 7]: 38% | AUC(0-inf) [1, 8]: 321 ng·h/mL | Cmax [1, 9]: 150 ng/mL | half-life [1, 10]: 1.48 h | IC50 (human SERT): 1700 nM | IC50 (human DAT; [11]): 100 nM | IC50 (human NET): 800 nM

CN[C@]1(c2ccccc2)CCc2nc(N)sc2C1 [R-A3]
Ki (Sigma2 receptor; [4]): 1760 nM | IC50 (human SERT): 1200 nM

CN[C@]1(c2ccccc2)CCc2ncsc2C1 [R-A13]
Ki (Sigma2 receptor; [4]): 289 nM

N[C@]1(c2ccccc2)CCc2ccsc2C1 [R-A19]
Ki (Sigma2 receptor; [4]): 1270 nM | IC50 (human SERT): 1200 nM

CN[C@@]1(c2ccccc2)CCc2nc(N)sc2C1 [S-A3]
Ki (Sigma2 receptor; [4]): 990 nM | IC50 (human DAT; [11]): 1600 nM

c1ccc([C@]2(N3CCCC3)CCc3[nH]ncc3C2)cc1 [S-A12]
IC50 [3]: 180 nM

N[C@@]1(c2ccccc2)CCc2ccsc2C1 [S-A19]
Ki (Sigma2 receptor; [4]): 1120 nM

From US20260174739A1 (priority 2022, published 2026)
